Columns and labels:
[1] = system: collagen I scaffolds; assay: 131-iodine coating efficiency (binding) assay on collagen I scaffolds with/without PLL precoating; details: with PLL as intermediate layer vs without PLL / controls, 1 mm thin and 2 mm thick scaffolds
Protocol: Materials—MDS Collagen was obtained from MedSkin Solutions Dr. Suwelack A G (MDS). 1 mm thickness refers to thin, and 2 mm thickness refers to thick collagen scaffold, respectively. c-poly-L-lysine hydrobromide (PLL, 30 000-150 000 g/mol) was purchased from Sigma-Aldrich, St. Louis, USA. Collagen VI and its derived peptides were prepared as described in [18]. LL-37 was a kind gift of Dr. Artur Schmidtchen, University of Lund. NAT26, HKH20, GGL27 were kind gifts of Dr. Inga-Maria Frick, University of Lund. α defensins 3-6 and β defensins 1-4 were kind gifts of Dr. Arne Egesten, University of Lund. Proteins were radiolabeled with 131-iodine according to standard protocols prior to coating assays on collagen scaffold surfaces.
Biomaterial surface coating with PLL—collagen scaffold discs with a diameter of 5 mm and thickness of 2 mm (thick scaffold) and 1 mm (thin scaffold), respectively, were punched out from a larger sheet (approximately 10 cm×10 cm). Prior to collagen coating, 150 μl poly-L-lysine hydrobromide solution (0.2 mg/ml) were applied on the collagen scaffold discs by incubation at 60° C. for 2 h. Afterwards the discs were washed twice in distilled water to remove unbound PLL, air-dried and stored at room temperature.
Biomaterial surface coating with bioactive collagen VI molecules—collagen scaffold discs, after prior treatment with PLL, were put into 24-well cell culture plates (TPP, Trasadingen, Switzerland). They were coated by incubation with 150 μl bovine collagen VI microfibrils (concentration 15 μM), or with 150 μl collagen type VI peptides (concentration 3 μM), or with […] LL-37, NAT26, HKH20, GGL27, α defensins 3-6 and β defensins 1-4 at 4° C. for 2 h, followed by rinsing with distilled water and air-drying. The coating efficiencies of the different biomolecules were assessed by determining the ratio between bound and free 131-iodine radioactivity associated with collagen scaffolds by determining radioactivity as cpm values in a γ-counter.

[2] = 131-iodine coating efficiency (binding) assay on titanium surfaces with/without PLL precoating; details: with PLL as intermediate layer vs without PLL / controls
Protocol: Materials—Titanium discs with a diameter and thickness of 5 mm and 0.25 mm, respectively, and with a maximum average roughness (Ra) of 0.8 μm, were punched out from a commercially available titanium foil (Alfa Aesar GmbH & Co. KG, Karlsruhe, Germany). ε-poly-L-lysine hydrobromide (PLL, 30,000-150,000 g/mol) was purchased from Sigma-Aldrich, St. Louis, USA. Collagen VI and its derived peptides were prepared as described in [18]. LL-37 was a kind gift of Dr. Artur Schmidtchen, University of Lund. NAT26, HKH20, GGL27 were kind gifts of Dr. Inga-Maria Frick, University of Lund. α defensins 3-6 and β defensins 1-4 were kind gifts of Dr. Arne Egesten, University of Lund. Proteins were radiolabeled with 131-iodine according to standard protocols prior to coating assays on collagen scaffold surfaces.
Biomaterial surface coating with PLL—Titanium discs were degreased with chloroform and 97% ethanol, followed by rinsing with distilled water, and air-drying at room temperature. Subsequently, prior to collagen coating, 150 μl poly-L-lysine hydrobromide (70,000-150,000 g/mol, Sigma-Aldrich, St. Louis, USA, 0.2 mg/ml) were applied on desired titanium discs by incubation at 60° C. for 2 hours. Afterwards, the titanium was washed twice in distilled water to remove unbound PLL, air-dried and stored at room temperature.
Biomaterial surface coating with bioactive collagen VI molecules—Titanium discs, after prior treatment with PLL, were put into 24-well cell culture plates (TPP, Trasadingen, Switzerland). They were coated by incubation with 150 μl collagen type VI peptides (concentration 3 μM), at 4° C. for 2 hours, followed by rinsing with distilled water and air-drying. The coating efficiencies of the different biomolecules were assessed by determining the ratio between bound and free 131-iodine radioactivity associated with titanium discs by determining radioactivity as cpm values in a γ-counter.

[3] = system: Human Dermal Fibroblasts, adult (HDFa); assay: Fibroblast adherence on coated surfaces, scanning electron microscopy; format: cell-based; details: with PLL as intermediate layer vs without PLL and other parts of collagen VI, measured in cells/mm^2; for fibroblast adherence on collagen I scaffolds: FIG. 11; for fibroblast adherence on titanium surfaces: titanium surface, FIG. 7
Protocol: (§1) Collagen I scaffolds and titanium surfaces were coated with collagen VI microfibrils, each of collagen VI alpha 1-3 chains and the bioactive collagen VI peptides GVR28, FYL25, FFL25, VTT30, and SFV33 as described in Examples 1 and 2 above.
(§2) Adherence of fibroblasts or keratinocytes was assessed by scanning electron microscopy.
(§3) Cells and culture conditions—Keratinocytes (Human Epidermal Keratinocytes, adult (HEKa), C-005-5C, Gibco) and fibroblasts (Human Dermal Fibroblasts, adult (HDFa), C0135C, Gibco) were purchased from Thermo Fisher Scientific, Waltham, USA. Cryopreserved cells were thawed according to the manufacturer's protocol and seeded on three 75 mL tissue culture flasks, each containing 15 mL of keratinocyte basal medium (KBM; KBM Gold, Lonza Group AG, Basel, Switzerland). The medium was supplemented with transferrin, recombinant human epidermal growth factor (rhEGF), bovine pituitary extract (BPE), antibiotics (Gentamycin: GA-1000), insulin, epinephrine and hydrocortisone (PeproTech, New Jersey, USA). For fibroblasts, complete growth medium consisting of Dulbecco's modified eagle medium (D-MEM) with 100 mM sodium pyruvate (PAA Laboratories, Pasching, Austria), supplemented with 10% fetal bovine serum (FBS) (PAA Laboratories, Pasching, Austria) and 2 mM L-glutamine (Invitrogen, Carlsbad, USA), was used. Medium was changed every day and substituted with additional rhEGF at a final dilution of 1:1000. The cells were incubated for seven days until they reached confluency. The cells were harvested by trypsinization (TrypLE™ Select (1x), Life Technologies Corporation, Carlsbad, USA) and transferred into freezing medium, containing 1% BSA (Sigma Aldrich, St. Louis, USA) and 10% DMSO (Sigma-Aldrich, St. Louis, USA). 1 mL aliquots of the cell suspension were transferred into cryotubes. The cryotubes were transferred to the freezer at −80° C. for 24 hours and then finally stored in liquid nitrogen until further use.
(§4) Cell attachment—Cells were gently thawed and counted in a hemocytometer using trypan blue (Fisher Scientific, Waltham, USA) to estimate the number of live/dead cells. They were finally diluted in appropriate media to final cell concentrations of 16700 viable cells/mL. 300 μL cell solution were added on top of punched out titanium or collagen I scaffold samples, followed by incubation at 37° C. for 1 hour. Growth medium was removed and the cells were gently washed twice with PBS. The cells were then fixed by the addition of 4% formaldehyde in PBS, followed by incubation at 4° C. for 20 minutes. Finally, cells were rinsed three times in PBS and stored in 3 mL PBS until further evaluation by scanning electron microscopy.

[4] = system: Human Epidermal Keratinocytes, adult (HEKa); assay: Keratinocyte adherence on coated surfaces, scanning electron microscopy; format: cell-based; details: with PLL as intermediate layer vs without PLL and other parts of collagen VI; for keratinocyte adherence on collagen I scaffolds: FIG. 12; for keratinocyte adherence on titanium surfaces: titanium surface, FIG. 8
Protocol: as §1, §2, §3, §4

[5] = system: Pseudomonas aeruginosa; assay: Gram-negative bacterial killing efficiency on coated surfaces, scanning electron microscopy; format: cell-based; details: with PLL as intermediate layer vs without PLL and other parts of collagen VI; for killing of Pseudomonas aeruginosa on collagen I scaffolds: collagen I scaffolds 1 mm / 2 mm, FIG. 9; for killing of Pseudomonas aeruginosa on titanium surfaces: titanium surface, FIG. 5
Protocol: (§5) Collagen I scaffolds and titanium surfaces were coated with collagen VI microfibrils, each of collagen VI alpha 1-3 chains and the bioactive collagen VI peptides GVR28, FYL25, FFL25, VTT30, and SFV33 as described in Examples 1 and 2 above, respectively.
(§6) Killing efficiency of the gram-negative Pseudomonas aeruginosa bacteria and the gram-positive Staphylococcus aureus were assessed by scanning electron microscopy. For killing efficiency and scanning electron microscopy experiments, titanium scaffold discs with a size of 5 mm and a thickness of 0.25 mm, and collagen I scaffold discs with a size of 5 mm and a thickness of 1 mm (thin scaffold) or 2 mm (thick scaffold), respectively, were punched out and coated with PLL as described in Examples 1 and 2 above. They were subsequently incubated with 500 μL of bacterial suspension (5×10^8 cfu/ml bacteria) and incubated for 2 hours at 37° C. in a humid atmosphere containing 5% CO2.
(§7) The discs were then prepared for scanning electron microscopy. In short, samples were incubated overnight at 4° C. with fixation buffer (0.15M sodium cacodylate, pH 7.4, containing 2.5% v/v glutaraldehyde) and subsequently washed with cacodylate buffer (0.15M sodium cacodylate, pH 7.4), followed by a standard dehydration series with ethanol-water mixtures. Specimens were then dried in liquid CO2, using ethanol as an intermediate solvent. Samples were mounted on aluminium discs and coated with 20 nm gold/palladium. Finally, samples were investigated with an XL 30 FEG scanning electron microscope and images were processed by AnalySIS ITEM software. Viable and non-viable bacteria were directly identified and quantified under in the scanning electron microscope due to their structural differences.

[6] = system: Staphylococcus aureus; assay: Gram-positive bacterial killing efficiency on coated surfaces, scanning electron microscopy; format: cell-based; details: with PLL as intermediate layer vs without PLL and other parts of collagen VI; for killing of Staphylococcus aureus on collagen I scaffolds: collagen I scaffolds 1 mm / 2 mm, FIG. 10; for killing of Staphylococcus aureus on titanium surfaces: titanium surface, FIG. 6
Protocol: as §5, §6, §7

[7] = listed as collagen type VI alpha-3 chain

Which “coating efficiency (binding) on collagen I scaffolds” value [1] does the source give for “VTTEIRFADSKRKSVLLDKIKNLQVALTSK (VTT30 peptide)” here?
Its value is “superior coating”.

And the “coating efficiency (binding) on titanium surfaces” value [2]?
The value was “superior coating”.

And the “fibroblast adherence on collagen I scaffolds” value [3]?
The value was “considerably enhanced”.

What about the “fibroblast adherence on titanium surfaces” value [3] of the same substance?
The value was “considerably enhanced”.

What about the “keratinocyte adherence on collagen I scaffolds” value [4] of the same substance?
The value was “considerably enhanced”.

What about the “keratinocyte adherence on titanium surfaces” value [4] of the same substance?
Its value is “considerably enhanced”.

Which results are given for “FYLKTYRSQAPVLDAIRRLRLRGGS (FYL25 peptide)”?
coating efficiency (binding) on collagen I scaffolds [1]: superior coating; coating efficiency (binding) on titanium surfaces [2]: superior coating

For “collagen VI alpha-3 chain: alpha-3 polypeptide chain of collagen type VI (UniProt P12111)”, which “coating efficiency (binding) on collagen I scaffolds” value [1] is on record?
The value was “considerably enhanced”.

What about the “coating efficiency (binding) on collagen I scaffolds” value [1, 7] of the same substance?
The value was “superior coating”.

What about the “coating efficiency (binding) on titanium surfaces” value [2] of the same substance?
Its value is “considerably enhanced”.

What about the “coating efficiency (binding) on titanium surfaces” value [2, 7] of the same substance?
The value was “superior coating”.

What about the “killing of Pseudomonas aeruginosa on collagen I scaffolds” value [5] of the same substance?
The value was “considerably enhanced”.

What about the “killing of Pseudomonas aeruginosa on titanium surfaces” value [5] of the same substance?
The value was “considerably enhanced”.

What about the “killing of Staphylococcus aureus on collagen I scaffolds” value [6] of the same substance?
The value was “considerably enhanced”.

What about the “killing of Staphylococcus aureus on titanium surfaces” value [6] of the same substance?
Its value is “considerably enhanced”.

And the “fibroblast adherence on collagen I scaffolds” value [3]?
The value was “considerably enhanced”.

What about the “fibroblast adherence on titanium surfaces” value [3] of the same substance?
Its value is “considerably enhanced”.

And the “keratinocyte adherence on collagen I scaffolds” value [4]?
The value was “considerably enhanced”.

And the “keratinocyte adherence on titanium surfaces” value [4]?
The value was “considerably enhanced”.

Which results are given for “SFVARNTFKRVRNGFLMRKVAVFFSNTPTRASP (SFV33 peptide)”?
coating efficiency (binding) on collagen I scaffolds [1]: superior coating; coating efficiency (binding) on titanium surfaces [2]: superior coating; killing of Pseudomonas aeruginosa on collagen I scaffolds [5]: considerably enhanced; killing of Pseudomonas aeruginosa on titanium surfaces [5]: considerably enhanced; killing of Staphylococcus aureus on collagen I scaffolds [6]: considerably enhanced; killing of Staphylococcus aureus on titanium surfaces [6]: considerably enhanced

For “FFLKDFSTKRQIIDAINKVVYKGGR (FFL25 peptide)”, which “coating efficiency (binding) on collagen I scaffolds” value [1] is on record?
Its value is “superior coating”.

And the “coating efficiency (binding) on titanium surfaces” value [2]?
Its value is “superior coating”.

And the “fibroblast adherence on collagen I scaffolds” value [3]?
Its value is “considerably enhanced”.

And the “fibroblast adherence on titanium surfaces” value [3]?
The value was “considerably enhanced”.

And the “keratinocyte adherence on collagen I scaffolds” value [4]?
Its value is “considerably enhanced”.

What about the “keratinocyte adherence on titanium surfaces” value [4] of the same substance?
Its value is “considerably enhanced”.

Which results are given for “GVRPDGFAHIRDFVSRIVRRLNIGPSKV (GVR28 peptide)”?
coating efficiency (binding) on collagen I scaffolds [1]: superior coating; coating efficiency (binding) on titanium surfaces [2]: superior coating; fibroblast adherence on collagen I scaffolds [3]: considerably enhanced; fibroblast adherence on titanium surfaces [3]: considerably enhanced; keratinocyte adherence on collagen I scaffolds [4]: considerably enhanced; keratinocyte adherence on titanium surfaces [4]: considerably enhanced

Reference: patent US20220296669A1, “NOVEL COMPOSITIONS AND USES THEREOF” (priority 2019, published 2022)
